Experimental data taken from patent US20160324152A1, “Compositions And Methods For Killing And/Or Immobilizing Insects” (The United States of America, as represented by the …, priority 2015, published 2016).
Like-named read-outs stand apart in the source and are kept apart here.

Tested on: Solenopsis invicta workers
Conditions: topical
Method: Topical Bioassay: Mortalities of S. invicta workers after topical treatment with Ethal TDA surfactants were determined. For ease of handling and obtaining uniform body weight, only large workers were used in the bioassay. Acetone was used as a solvent. The solution (10% w/v) was applied with a 0.779 μl capillary tube. All surfactants were tested at a concentration of 77.9 μg/ant. In the control, ants were only treated with 0.779 μl acetone. Treated ants were placed in a 30-ml capped cup at room temperature (˜23° C.) and dead ants were counted at 24 h. Three colonies were originally tested. There were 3-6 replicates for each colony. A single replicate consisted of 17 to 20 ants. In order to assess the mortality at 48 h, another three colonies were tested. For these three colonies, dead ants were counted at both 24 h and 48 h. Mortalities were adjusted using Abbott's formula (Abbott, W. S., J. Econ. Entomol., 18: 265-267 (1925)) before being used in statistical analysis. For analyzing 24 h mortality, data for all six colonies were used.
We also tested the toxicity of piperonyl butoxide (PBO) against red imported fire ants. […] Topical bioassay as described above was used: Mortalities of S. invicta workers after topical treatment with PBO were determined. […] Treated ants were placed in a 30-ml capped cup at room temperature (˜23° C.) and dead ants were counted at 24 h. […]

CCCCCCCCCCCC(C)=O [2-tridecanone]
LD50 (colony 288, PBO 0 μg/ant): 18.96 μg/ant | LD50 (colony 295, PBO 0 μg/ant): 22.82 μg/ant
